How the values were obtained:
Format in all cases: cell-based
PC14 cells [1] = assay: WST assay of cell proliferation (CCC021-TPP); conditions: PC14, 4 days
Procedure: (§1) The proliferation suppressive effect of CCC021-TPP on cells having the A14582G mtDNA mutation was evaluated by WST assay. Both the mitochondrial DNA mutated cell line A549 and a PC14 cell line having no mutation were inoculated at 1×10^3 cells/well to 96-well plates (Thermo Fisher Scientific), cultured for 24 hours, and then treated with CCC021-TPP (final concentration: 0, 1, 5, 10, 20, 25, 50, and 100 μM). The cells were further cultured for 4 days and then morphologically observed under optical microscope IX71 (OLYMPUS, Tokyo, Japan). Then, cell survival rates were calculated using Cell counting kit-8 (DOJINDO, Kumamoto, Japan) according to the instruction manual. DMSO (FUJIFILM Wako Pure Chemical Corp.) (final concentration: 1%) was added as a control to cells.
(§2) IC50 was calculated according to the following expression:
(§3) IC50=10(LOG(A/B)×(50−C)/(D−C)+LOG(B))

A549 cells [2] = assay: WST assay of cell proliferation (CCC021-TPP); conditions: Homo sapiens, 96 h; A549, 4 days
Procedure: as §1, §2, §3

A549 cells [3] = assay: Synthetic lethality: cell morphology with CCC021-TPP and ABT-263; conditions: days 2 and 4
Description: Since the suppression of cell death in the cellular senescence of the A549 cells was presumably due to the BCL pathway, it was believed that the apoptosis of cells whose cellular senescence was evoked by CCC021-TPP could be induced by combined use with ABT-263 (Cayman Chemical Company) serving as a senolytic drug and a BCL pathway inhibitor. Thus, the possibility of inducing the cell death of senescent cells by CCC021-TPP treatment and combined use with the BCL2/BCL-XL inhibitor ABT-263 was observed under an optical microscope to observe change in cell morphology. Five hundred A549 cells were inoculated to a 96-well plate, cultured for 24 hours, and then observed over time under an optical microscope either without administration or after administration of 20 μM CCC021-TPP and 10 μM ABT-263 each used alone or used concurrently, and cell morphology was photographed on days 2 and 4.

A549 cells [4] = assay: Autophagy by anti-LC3 / cytochrome C immunofluorescent staining; conditions: 20 μM, 4-day treatment
Description: A possible cause of cellular senescence was the induction of mitochondrion-specific autophagy (mitophagy) of mutant mitochondria by the administration of CCC021-TPP. It is considered that the excessive production of reactive oxygen species in association therewith was involved in the induction of cellular senescence.

PC14 cells [5] = assay: ROS production with MitoSOX Red; conditions: 10 μM, 24 hours
Procedure: (§4) In order to confirm the production induction of reactive oxygen species (ROS) by mitophagy, the production of reactive oxygen species was fluorescently observed with MitoSOX Red (Invitrogen). 10^4 A549 or PC14 cells were inoculated, cultured for 10 hours, then treated with 10 μM CCC021-TPP for 24 hours, then washed with PBS, and treated at 37° C. for 10 minutes with MitoSOX Red dissolved in 13 μL of DMSO and diluted into 5 μM (final concentration) with PBS. The cells were washed with PBS and then observed under SP8 confocal microscope.

A549 cells [6] = assay: ROS production with MitoSOX Red; conditions: 10 μM, 24 hours
Procedure: as §4

A549 cells [7] = assay: Expression of inflammatory cytokines (SASP) by RT-qPCR; conditions: 5 days after treatment
Procedure: The expression of inflammation-related genes such as inflammatory cytokine genes is increased in senescent cells. It is known that a phenomenon called SASP (senescence-associated secretory phenotype) is thereby induced. In order to study whether this phenomenon was induced in the A549 cells, the cells were recovered 5 days after CCC021-TPP treatment in the same manner as in Example 1, and RNA extraction, RNA reverse-transcription, cDNA synthesis, and RT-qPCR were performed in the same manner as in Example 1 to examine the expression of inflammatory cytokines (IL-1A, IL-1B, IL-6, and IL-8) in the A549 cells and the PC14 cells. The primers used for the amplification of each gene are shown below. For qPCR, amplification was performed under conditions involving a holding stage of 50° C. for 2 min→95° C. for 10 min followed by 40 cycles of a cycling stage each involving 95° C. for 15 sec→60° C. for 1 min using Applied Biosystems(R) 7500 real-time PCR system, and melt curve analysis after amplification was conducted at a melt curve stage of 95° C. for 15 sec→60° C. for 1 min→95° C. for 15 sec→60° C. for 15 sec to confirm reaction specificity from the absence of primer dimer by-products or the like in PCR products.

PC14 cells [8] = assay: Long-term cell proliferation, cell numbers counted for 8 days; conditions: 20 μM
Procedure: (§5) The suppression of cell proliferation was further observed in the A549 and PC14 cells mentioned above for a long period. The observation was performed for 8 days under the culture conditions described above (both the mtDNA mutation cell line A549 and the PC14 cell line having no mutation were inoculated at 1×10^3 cells/well, cultured for 24 hours, and then treated with CCC021-TPP (final concentration: 20 μM)), and cell numbers were counted.

A549 cells [9] = assay: as above; conditions: 20 μM
Procedure: as §5

A549 cells [10] = assay: Synthetic lethality: cell morphology with CCC021-TPP and ABT-199 or A1155463; conditions: 4 days
Procedure: It was confirmed with the BCL2- and BCL-XL-specific inhibitor that the suppression of cell death in the cellular senescence of the A549 cells was presumably due to the BCL pathway. The type of BCL pathway inhibition, combined use of which could induce cell death (apoptosis) in the senescent cells of the A549 cells was studied. Five hundred A549 cells were inoculated to a 96-well plate and cultured for 24 hours. Then, change in cell morphology was photographed under an optical microscope either without administration (i.e., after DMSO treatment) or 4 days after treatment with 20 μM CCC021-TPP and 10 μM BCL2 inhibitor ABT-199 (compound venetoclax of No. 33 in FIG. 55-10) or 10 μM BCL-XL inhibitor A1155463 (compound of No. 16 in FIG. 55-6) each alone, or treatment by combined use of the same concentration of CCC021-TPP with the same concentration of ABT-199 or A1155463.

CN(C)CCCNC(=O)CCNC(=O)c1cc(NC(=O)c2cc(NC(=O)CCNC(=O)c3nc(NC(=O)c4cc(NC(=O)c5cc(NC(=O)CCNC(=O)CCCC[P+](c6ccccc6)(c6ccccc6)c6ccccc6)cn5C)cn4C)cn3C)cn2C)cn1C [CCC021-TPP]
IC50 (WST assay) (PC14 cells [1]): incalculable
IC50 (A549 cells [2]): 78.9 µM
cells that underwent apoptosis (morphology) (A549 cells [3]; combined use of 20 μM CCC021-TPP and 10 μM ABT-263): cells that evidently underwent apoptosis were already found
cells that underwent apoptosis (morphology) (A549 cells [3]; each used alone: 20 μM CCC021-TPP, 10 μM ABT-263): not detected
mitophagy (colocalization of LC3 and cytochrome C) (A549 cells [4]): mitophagy was induced
ROS production (PC14 cells [5]): rarely observed
ROS production (A549 cells [6]): excessive induction of ROS production in cytoplasm was observed
expression of IL-1A (A549 cells [7]): significantly increased expression
expression of IL-6 (A549 cells [7]): tendency to increase the expression
expression of IL-8 (A549 cells [7]): significantly increased expression
cell number / proliferation (PC14 cells [8]): neither significant difference in cell number nor a cell proliferation suppressive effect was found
cell number / proliferation (A549 cells [9]): significant suppression of proliferation
cell death (morphology) (A549 cells [10]; 20 μM CCC021-TPP and 10 μM A1155463 used concurrently): markedly increased numbers of cells that underwent apoptosis
cell death (morphology) (A549 cells [10]; single administration: 20 μM CCC021-TPP, 10 μM ABT-199, 10 μM A1155463): Any finding indicating cell death was not obtained

— patent publication US20220193241A1, “AGENT TARGETING DOUBLE-MEMBRANE ORGANELLE DNA” (CHIBA-PREFECTURE, priority 2019, published 2022)
